Source: the supplement of paper PMC12325586

System: MIA PaCa-2
Method: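 MIA PaCa-2 Tet-on shOFD1 pancreatic cancer cells (2000 cells/well, 96-well) were treated with Selleck FDA-approved library compounds at 0, 1, 5, 10, 25 and 50 µM, with extra concentrations added where needed, for 72 h at 37 °C. Knockdown wells also received 100 ng/mL doxycycline; control wells received DMSO without doxycycline. Viability was read by CCK-8 absorbance at 450 nm and normalised to DMSO control wells. IC50 was fitted in GraphPad Prism as a 4-parameter logistic with bottom fixed at 0 and top fixed at 1; at least 3 technical replicate wells per condition.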

[1] = OFD1 knockdown: no (no doxycycline)
[2] = OFD1 knockdown: yes (Tet-on shOFD1, 100 ng/mL doxycycline)

Question: For `CC[C@@]1(O)C(=O)OCc2c1cc1n(c2=O)Cc2cc3c(CN(C)C)c(O)ccc3nc2-1` [S1231], which IC50 cell viability [1] is on record?
Answer: 54.5 µM

Question: And the IC50 cell viability [2]?
Answer: 49.8 µM

Question: What does the source list for `CC(C)n1c(/C=C/C(O)CC(O)CC(=O)O)c(-c2ccc(F)cc2)c2ccccc21` (configuration not stated) [S1909]?
Answer: IC50 cell viability [1]: 8.13 µM; IC50 cell viability [2]: 7.35 µM

Question: For `CCOc1cc2ncc(C#N)c(Nc3ccc(F)c(Cl)c3)c2cc1NC(=O)/C=C/CN(C)C` [S1392], which IC50 cell viability [1] is on record?
Answer: 53.8 µM

Question: What about the IC50 cell viability [2] of the same molecule?
Answer: 56.4 µM

Question: With `CC1=C(/C=C/C(C)=C/C=C/C(C)=C\C(=O)O)C(C)(C)CCC1` [S1379] as the molecule, how does the IC50 cell viability [1] read?
Answer: 12.2 µM

Question: What about the IC50 cell viability [2] of the same molecule?
Answer: 11.5 µM

Question: How did the IC50 cell viability [1] turn out when `CO[C@H]1C[C@@H]2CC[C@@H](C)[C@@](O)(O2)C(=O)C(=O)N2CCCC[C@H]2C(=O)O[C@H]([C@H](C)C[C@@H]2CC[C@@H](OCCO)[C@H](OC)C2)CC(=O)[C@H](C)/C=C(\C)[C@@H](O)[C@@H](OC)C(=O)[C@H](C)C[C@H](C)/C=C/C=C/C=C/1C` [S1120] was run?
Answer: 2.19 µM

Question: And the IC50 cell viability [2]?
Answer: 2.81 µM

Question: For `COc1cc(OC)c(/C=C/S(=O)(=O)Cc2ccc(OC)c(NCC(=O)O)c2)c(OC)c1` [S1362], which IC50 cell viability [1] is on record?
Answer: 2.53 µM

Question: And the IC50 cell viability [2]?
Answer: 2.01 µM

Question: Which IC50 cell viability [1] does the source give for `CN1CCN(c2ccc3nc(-c4c(N)c5c(F)cccc5[nH]c4=O)[nH]c3c2)CC1` [S1018] here?
Answer: 12.9 µM

Question: And the IC50 cell viability [2]?
Answer: 11.7 µM

Question: For `Cc1cc(C)c2c(c1)[C@@H](N(Cc1cc(C(F)(F)F)cc(C(F)(F)F)c1)c1nnn(C)n1)CCCN2C[C@H]1CC[C@H](C(=O)O)CC1` [S2925], which IC50 cell viability [1] is on record?
Answer: 7.47 µM

Question: What about the IC50 cell viability [2] of the same molecule?
Answer: 5.94 µM

Question: For `Cn1cnc([N+](=O)[O-])c1Sc1ncnc2[nH]cnc12` [S1721], which IC50 cell viability [1] is on record?
Answer: 28.1 µM

Question: And the IC50 cell viability [2]?
Answer: 29.2 µM

Question: Which IC50 cell viability [1] does the source give for `Cc1cnc(Nc2ccc(OCCN3CCCC3)cc2)nc1Nc1cccc(S(=O)(=O)NC(C)(C)C)c1` [S2736] here?
Answer: 14.5 µM

Question: And the IC50 cell viability [2]?
Answer: 13.5 µM

Question: For `Nc1nc(F)nc2c1ncn2[C@@H]1O[C@H](CO)[C@@H](O)[C@@H]1O` [S1491], which IC50 cell viability [1] is on record?
Answer: 59 µM

Question: What about the IC50 cell viability [2] of the same molecule?
Answer: 54.2 µM

Question: With `Cc1ccc(-n2nc(C(C)(C)C)cc2NC(=O)Nc2ccc(OCCN3CCOCC3)c3ccccc23)cc1` [S1574] as the molecule, how does the IC50 cell viability [1] read?
Answer: 77.2 µM

Question: And the IC50 cell viability [2]?
Answer: 83.8 µM

Question: Which results are given for `CCN(CC)C(=S)SSC(=S)N(CC)CC` [S1680]?
Answer: IC50 cell viability [1]: 46.3 µM; IC50 cell viability [2]: 49.8 µM

Question: Which results are given for `S=C(NCc1ccc2c(c1)OCO2)N1CCN(c2ncnc3c2oc2ccccc23)CC1` [S1244]?
Answer: IC50 cell viability [1]: 51.5 µM; IC50 cell viability [2]: 51.9 µM

Question: What does the source list for `C[C@@H]1C[C@H]2[C@@H]3CCC4=CC(=O)C=C[C@]4(C)[C@@]3(F)[C@@H](O)C[C@]2(C)[C@@]1(O)C(=O)CO` [S1322]?
Answer: IC50 cell viability [1]: 8.52 µM; IC50 cell viability [2]: 7.75 µM

Question: Which IC50 cell viability [1] does the source give for `COc1cc(Nc2nc3ccccc3nc2NS(=O)(=O)c2ccc(NC(=O)c3ccc(C)c(OC)c3)cc2)cc(OC)c1` [S1523] here?
Answer: 47.6 µM

Question: And the IC50 cell viability [2]?
Answer: 45.5 µM

Question: Which IC50 cell viability [1] does the source give for `COc1cc2nccc(Oc3ccc(NC(=O)NC4CC4)c(Cl)c3)c2cc1C(N)=O` [S1164] here?
Answer: 21.1 µM

Question: What about the IC50 cell viability [2] of the same molecule?
Answer: 19.7 µM

Question: With `OC(CNCC(O)C1CCc2cc(F)ccc2O1)C1CCc2cc(F)ccc2O1` (configuration not stated) [S1549] as the molecule, how does the IC50 cell viability [1] read?
Answer: 28.8 µM

Question: And the IC50 cell viability [2]?
Answer: 27.2 µM

Question: Which results are given for `CCCCCCNC(=O)n1cc(F)c(=O)[nH]c1=O` [S1289]?
Answer: IC50 cell viability [1]: 2.36 µM; IC50 cell viability [2]: 2.4 µM

Question: Which results are given for `CS(=O)(=O)CCNCc1ccc(-c2ccc3ncnc(Nc4ccc(OCc5cccc(F)c5)c(Cl)c4)c3c2)o1` [S2111]?
Answer: IC50 cell viability [1]: 9.12 µM; IC50 cell viability [2]: 8.03 µM

Question: Which IC50 cell viability [1] does the source give for `N[C@@H](CC(=O)N1CCn2c(nnc2C(F)(F)F)C1)Cc1cc(F)c(F)cc1F` [S4002] here?
Answer: 21.9 µM

Question: And the IC50 cell viability [2]?
Answer: 21.2 µM

Question: `O=C1CCC(N2C(=O)c3ccccc3C2=O)C(=O)N1` (configuration not stated) [S1193] was tested. Which IC50 cell viability [1] did it give?
Answer: 29.9 µM

Question: What about the IC50 cell viability [2] of the same molecule?
Answer: 28.2 µM

Question: For `COc1ccc(-c2nc3cc(C4=NNC(=O)CC4C)ccc3[nH]2)cc1` (configuration not stated) [S1550], which IC50 cell viability [1] is on record?
Answer: 26.3 µM

Question: And the IC50 cell viability [2]?
Answer: 28.8 µM

Question: For `Cc1cccc(-c2nn3c(c2-c2ccnc4ccc(C(N)=O)cc24)CCC3)n1` [S2230], which IC50 cell viability [1] is on record?
Answer: 3.61 µM

Question: And the IC50 cell viability [2]?
Answer: 3.02 µM

Question: What does the source list for `Oc1ncnc2[nH]ncc12` [S1630]?
Answer: IC50 cell viability [1]: 13.5 µM; IC50 cell viability [2]: 13.3 µM

Question: `Cc1ccc(NC(=O)c2ccc(CN3CCN(C)CC3)cc2)cc1Nc1nc(-c2cccnc2)cs1` [S1064] was tested. Which IC50 cell viability [1] did it give?
Answer: 68.8 µM

Question: What about the IC50 cell viability [2] of the same molecule?
Answer: 66.2 µM

Question: What does the source list for `CC1=C(/C=C/C(C)=C/C=C/C(C)=C/C(=O)O)C(C)(C)CCC1` [S1653]?
Answer: IC50 cell viability [1]: 13.6 µM; IC50 cell viability [2]: 14.3 µM

Question: For `CC(=O)O[C@]1(C(C)=O)CC[C@H]2[C@@H]3C[C@H](C)C4=CC(=O)CC[C@]4(C)[C@H]3CC[C@@]21C` [S2567], which IC50 cell viability [1] is on record?
Answer: 10.2 µM

Question: And the IC50 cell viability [2]?
Answer: 8.9 µM

Question: What does the source list for `Nc1ccccc1NC(=O)c1ccc(CNC(=O)OCc2cccnc2)cc1` [S1053]?
Answer: IC50 cell viability [1]: 11 µM; IC50 cell viability [2]: 11.2 µM

Question: For `COc1ccccc1OCC(O)CN1CCN(CC(=O)Nc2c(C)cccc2C)CC1` (configuration not stated) [S1799], which IC50 cell viability [1] is on record?
Answer: 20.2 µM

Question: And the IC50 cell viability [2]?
Answer: 19.2 µM

Question: How did the IC50 cell viability [1] turn out when `CC1(C)CCC(c2ccc(Cl)cc2)=C(CN2CCN(c3ccc(C(=O)NS(=O)(=O)c4ccc(N[C@H](CCN5CCOCC5)CSc5ccccc5)c(S(=O)(=O)C(F)(F)F)c4)cc3)CC2)C1` [S1001] was run?
Answer: 18.7 µM

Question: What about the IC50 cell viability [2] of the same molecule?
Answer: 19 µM
